Measurements from article PMC10191619, “Bilirubin gates the TRPM2 channel as a direct agonist to exacerbate ischemic brain damage” (Neuron, 2023).

Assays:
Assay type in all cases: cell-based
[1] = target: T1, hTRPM2 K928A/D1069A double mutant (Homo sapiens, UniProt O94759, D1069A/K928A); experiment: Whole-cell patch-clamp, bilirubin-binding cavity double mutant; conditions: intracellular ADPR 500 μM
T1 construct: expressed in transfected cells; host or cells: HEK293T cells, transient transfection, GFP cDNA co-transfected as a separate marker
Method: (§1) Human embryonic kidney 293 (HEK293) cells with tetracycline-inducible expression of human TRPM2 channel (hTRPM2) were cultured in a mixed medium containing DMEM/ F-12 (Gibco, USA) and 10% fetal bovine serum (Gibco, USA) as well as blasticidin (50 μg/ml, Invivogen, USA) and zeocin (0.4 mg/ml, Invivogen, USA). The expression of hTRPM2 was induced by substituting blasticin and zeocin for tetracycline (1 μg/ml, Sigma, USA) 24-48 hours before use. TRPM2 channel mutants were transiently expressed in HEK293T cells by transfection with using Lipofectamine 3000. Briefly, HEK293T cells were transiently transfected with cDNAs encoding the mutant hTRPM2 channel. The cDNA for GFP was co-transfected as a marker for identification of the transfected cells for electrophysiological experiments 16-24 hours after transfection. […]
(§2) Coronal cortical slices were transferred into the recording chamber and continuously perfused at room temperature with ACSF oxygenated with 95% O2 and 5% CO2. […] For whole-cell or single channel recordings from transfected HEK-293T cells, the coverslips were placed in a culture dish (35 × 35 mm, Sorfa) containing HEPES based extracellular solution (ECS) and recorded by patch-clamp technique. […] Each coverslip was recorded only once with different drug exposures. […]

TRPM2-ΔN/ΔC = target: T2, TRPM2-ΔN/ΔC (Homo sapiens, UniProt O94759); experiment: Whole-cell patch-clamp, truncation mutant; conditions: ADPR 500 μM
T2 construct: expressed in transfected cells; host or cells: HEK293T cells, transient transfection, GFP cDNA co-transfected as a separate marker
Method: as §1, §2

hTRPM2 R302A/R358A = target: T3, hTRPM2 R302A/R358A (Homo sapiens, UniProt O94759, R302A/R358A); experiment: Whole-cell patch-clamp, N-terminal ADPR-binding site mutant; conditions: ADPR
T3 construct: expressed in transfected cells; host or cells: HEK293T cells, transient transfection (Lipofectamine 3000), GFP cDNA co-transfected as a separate marker
Method: as §1, §2

[2] = target: T4, human TRPM2 (hTRPM2) channel (Homo sapiens, UniProt O94759); experiment: Single-channel outside-out recordings from HEK-hTRPM2 cells; conditions: FFA co-application, n = 12
T4 construct: expressed in transfected cells; host or cells: HEK293 cells with tetracycline-inducible expression of hTRPM2 (HEK-hTRPM2)
Method: Human embryonic kidney 293 (HEK293) cells with tetracycline-inducible expression of human TRPM2 channel (hTRPM2) were cultured in a mixed medium containing DMEM/ F-12 (Gibco, USA) and 10% fetal bovine serum (Gibco, USA) as well as blasticidin (50 μg/ml, Invivogen, USA) and zeocin (0.4 mg/ml, Invivogen, USA). The expression of hTRPM2 was induced by substituting blasticin and zeocin for tetracycline (1 μg/ml, Sigma, USA) 24-48 hours before use. TRPM2 channel mutants were transiently expressed in HEK293T cells by transfection with using Lipofectamine 3000. Briefly, HEK293T cells were transiently transfected with cDNAs encoding the mutant hTRPM2 channel. The cDNA for GFP was co-transfected as a marker for identification of the transfected cells for electrophysiological experiments 16-24 hours after transfection. All the cells were seeded on 96-well coverslips (3 x 3 mm, WHB) and cultured at 37 °C under a humidified atmosphere containing 5% CO2.
Coronal cortical slices were transferred into the recording chamber and continuously perfused at room temperature with ACSF oxygenated with 95% O2 and 5% CO2. Cortical pyramidal neurons were visualized by an upright microscope (Carl Zeiss) equipped with a CCD monochrome video camera (IR-1000, DAGE-MTI) and identified by their localization in Layer V. Electrophysiology data were sampled (50 kHz) and lowpass filtered (5kHz four-pole Bessel filter) by a MultiClamp 700B dual channel amplifier (Molecular Devices). The patch electrodes were pulled from borosilicate capillary glass (1.5 mm outer diameter; 0.86 mm inner diameter; World Precision Instruments, USA) with a horizontal multi-step micropipette puller (Model, P-1000, Sutter Instrument). […] After forming >1 GΩ resistance seal in cell-attached configuration, we broke the patch membrane and kept the neurons at -64 mV and then performed whole-cell current-clamp recordings. Cells requiring holding current > -150 pA at -60 mV were discarded. The resting membrane potential (Vrest) was tested in I = 0 configuration. […] For whole-cell or single channel recordings from transfected HEK-293T cells, the coverslips were placed in a culture dish (35 × 35 mm, Sorfa) containing HEPES based extracellular solution (ECS) and recorded by patch-clamp technique. […] Each coverslip was recorded only once with different drug exposures. […] The excised patches were voltage-clamped from -80 mV to +80 mV (in 20 mV increasement) to generate the current-voltage (I-V) relationship of single channel currents from which their main conductance was calculated from the slope by linear regression of the mean current amplitude at different potentials. […]

T1 sequence (O94759 whole entry K928A/D1069A): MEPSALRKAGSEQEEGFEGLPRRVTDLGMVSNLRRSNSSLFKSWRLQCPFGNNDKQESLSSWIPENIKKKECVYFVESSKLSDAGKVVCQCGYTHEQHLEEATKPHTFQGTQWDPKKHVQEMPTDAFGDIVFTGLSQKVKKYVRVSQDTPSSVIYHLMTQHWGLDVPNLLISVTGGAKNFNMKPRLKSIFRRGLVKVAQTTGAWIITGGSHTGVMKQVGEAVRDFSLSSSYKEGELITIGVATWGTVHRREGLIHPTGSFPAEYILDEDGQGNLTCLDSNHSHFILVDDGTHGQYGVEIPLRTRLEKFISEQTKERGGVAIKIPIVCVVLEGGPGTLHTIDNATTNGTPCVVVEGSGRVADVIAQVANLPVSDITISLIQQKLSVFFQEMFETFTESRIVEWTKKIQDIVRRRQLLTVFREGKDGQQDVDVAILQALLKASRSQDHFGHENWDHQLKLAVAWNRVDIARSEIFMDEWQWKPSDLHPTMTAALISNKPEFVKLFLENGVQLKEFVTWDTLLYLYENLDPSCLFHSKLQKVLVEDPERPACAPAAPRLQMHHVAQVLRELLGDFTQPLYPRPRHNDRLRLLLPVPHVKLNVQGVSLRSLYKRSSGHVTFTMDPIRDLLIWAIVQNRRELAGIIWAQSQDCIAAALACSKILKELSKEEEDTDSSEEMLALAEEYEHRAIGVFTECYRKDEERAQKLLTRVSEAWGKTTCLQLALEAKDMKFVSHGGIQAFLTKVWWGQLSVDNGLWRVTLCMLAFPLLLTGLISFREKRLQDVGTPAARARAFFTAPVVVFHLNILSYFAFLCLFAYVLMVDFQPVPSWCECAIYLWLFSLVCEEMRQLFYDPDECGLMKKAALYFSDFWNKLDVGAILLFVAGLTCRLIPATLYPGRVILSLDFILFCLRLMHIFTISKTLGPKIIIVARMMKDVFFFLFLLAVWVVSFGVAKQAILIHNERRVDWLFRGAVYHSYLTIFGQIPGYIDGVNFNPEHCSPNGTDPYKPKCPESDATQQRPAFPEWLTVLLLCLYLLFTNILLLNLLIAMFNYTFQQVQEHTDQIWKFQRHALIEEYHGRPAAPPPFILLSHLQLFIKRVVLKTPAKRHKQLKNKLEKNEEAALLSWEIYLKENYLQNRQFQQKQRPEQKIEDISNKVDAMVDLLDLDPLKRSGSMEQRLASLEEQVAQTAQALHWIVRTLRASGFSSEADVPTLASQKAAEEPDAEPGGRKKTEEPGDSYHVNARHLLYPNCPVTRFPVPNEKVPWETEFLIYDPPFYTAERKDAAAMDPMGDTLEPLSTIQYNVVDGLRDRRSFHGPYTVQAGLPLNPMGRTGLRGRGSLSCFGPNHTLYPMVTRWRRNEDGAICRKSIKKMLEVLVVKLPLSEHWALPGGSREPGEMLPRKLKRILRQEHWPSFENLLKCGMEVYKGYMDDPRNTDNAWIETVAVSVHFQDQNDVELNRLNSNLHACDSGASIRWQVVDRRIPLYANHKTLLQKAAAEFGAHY
T4 sequence (O94759 whole entry): as the sequence (O94759 whole entry K928A/D1069A) above, with A928K, A1069D counted along it
T2 sequence (O94759 1-1449 isoform O94759-2): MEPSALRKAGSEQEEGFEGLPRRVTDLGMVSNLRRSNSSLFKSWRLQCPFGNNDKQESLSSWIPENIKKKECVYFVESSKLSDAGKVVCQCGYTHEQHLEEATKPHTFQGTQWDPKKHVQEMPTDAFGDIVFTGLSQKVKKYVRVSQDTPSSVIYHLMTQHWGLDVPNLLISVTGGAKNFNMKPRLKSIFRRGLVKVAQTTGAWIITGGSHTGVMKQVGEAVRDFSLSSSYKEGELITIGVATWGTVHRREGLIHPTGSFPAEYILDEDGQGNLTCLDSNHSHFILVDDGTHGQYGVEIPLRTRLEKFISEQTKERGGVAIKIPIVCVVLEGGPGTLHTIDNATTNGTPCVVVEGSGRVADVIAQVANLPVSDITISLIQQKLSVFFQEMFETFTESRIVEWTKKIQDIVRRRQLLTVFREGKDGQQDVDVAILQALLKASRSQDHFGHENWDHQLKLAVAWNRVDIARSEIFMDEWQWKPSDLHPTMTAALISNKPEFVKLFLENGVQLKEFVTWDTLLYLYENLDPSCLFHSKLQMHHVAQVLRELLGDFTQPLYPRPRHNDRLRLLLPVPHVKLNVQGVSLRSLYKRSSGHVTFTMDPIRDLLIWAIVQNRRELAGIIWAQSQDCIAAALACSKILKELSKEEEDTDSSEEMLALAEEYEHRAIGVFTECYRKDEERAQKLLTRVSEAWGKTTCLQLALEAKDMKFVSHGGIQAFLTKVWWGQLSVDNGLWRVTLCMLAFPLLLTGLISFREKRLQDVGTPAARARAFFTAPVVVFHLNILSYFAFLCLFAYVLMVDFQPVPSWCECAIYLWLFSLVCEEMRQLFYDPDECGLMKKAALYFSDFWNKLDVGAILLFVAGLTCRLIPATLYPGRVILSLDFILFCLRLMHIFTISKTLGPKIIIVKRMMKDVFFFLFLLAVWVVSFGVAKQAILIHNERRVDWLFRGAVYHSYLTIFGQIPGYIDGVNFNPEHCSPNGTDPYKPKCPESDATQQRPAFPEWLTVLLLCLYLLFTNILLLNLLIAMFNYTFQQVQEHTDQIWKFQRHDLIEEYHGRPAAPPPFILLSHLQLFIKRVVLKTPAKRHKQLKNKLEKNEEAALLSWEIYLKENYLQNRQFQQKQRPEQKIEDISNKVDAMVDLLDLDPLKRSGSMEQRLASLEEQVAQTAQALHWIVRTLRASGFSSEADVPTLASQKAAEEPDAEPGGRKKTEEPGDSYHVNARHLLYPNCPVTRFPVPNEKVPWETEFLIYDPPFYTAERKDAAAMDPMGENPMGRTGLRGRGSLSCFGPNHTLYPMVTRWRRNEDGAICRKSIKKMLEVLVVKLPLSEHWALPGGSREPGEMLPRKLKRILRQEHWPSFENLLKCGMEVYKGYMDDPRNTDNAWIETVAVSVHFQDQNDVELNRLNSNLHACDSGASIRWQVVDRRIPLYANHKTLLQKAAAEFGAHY
T3 sequence (O94759 whole entry R302A/R358A): as the sequence (O94759 whole entry K928A/D1069A) above, with R302A, R358A, A928K, A1069D counted along it

Row | bilirubin-increased opening probability (Po) [2] | Structure (SMILES) | activation of mutant TRPM2 currents [1] | activation of mutant TRPM2 currents (TRPM2-ΔN/ΔC) | activation of mutant TRPM2 currents (hTRPM2 R302A/R358A)
1 |  | Nc1ncnc2c1ncn2C1O[C@H](COP(=O)([O-])OP(=O)(O)OC[C@H]2OC(O)[C@H](O)[C@@H]2O)[C@@H](O)[C@H]1O.O.O.[Na+] (stereo partly shown) [ADPR, Adenosine 5ʹ-diphosphoribose sodium salt] | perfectly retained their agonist capacity | eliminated the activation | failed to evoke currents
2 | reversed | O=C(O)c1ccccc1Nc1cccc(C(F)(F)F)c1 [FFA, flufenamic acid] |  |  | 
